Reference: PubChem BioAssay (NCI)
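Results reflect a 48-hour exposure of cells in 96-well plates to compound at five concentrations. Abbreviation: GI50, concentration required for 50% inhibition of growth. TGI: total growth inhibition.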

Columns and labels:
Assay in all cases: NCI-60 cell line screen, 48 h
[1] = test system: KM12 colon
[2] = test system: MCF7 breast
[3] = test system: COLO 205 colon
[4] = test system: MALME-3M melanoma
[5] = test system: TK-10 renal
[6] = test system: RPMI-8226 leukemia
[7] = test system: HOP-62 NSCLC
[8] = test system: CCRF-CEM leukemia
[9] = test system: HOP-92 NSCLC
[10] = test system: OVCAR-4 ovarian
[11] = test system: SW-620 colon
[12] = test system: SF-295 CNS
[13] = test system: T-47D breast
[14] = test system: M14 melanoma
[15] = test system: OVCAR-8 ovarian
[16] = test system: K-562 leukemia
[17] = test system: OVCAR-5 ovarian
[18] = test system: SK-MEL-28 melanoma
[19] = test system: HT29 colon
[20] = test system: BT-549 breast
[21] = test system: SNB-19 CNS
[22] = test system: UACC-62 melanoma
[23] = test system: LOX IMVI melanoma
[24] = test system: MOLT-4 leukemia
[25] = test system: PC-3 prostate
[26] = test system: SF-268 CNS
[27] = test system: HCT-116 colon
[28] = test system: NCI/ADR-RES ovarian
[29] = test system: NCI-H226 lung
[30] = test system: SK-MEL-5 melanoma
[31] = test system: SF-539 CNS
[32] = test system: A549 NSCLC
[33] = test system: UO-31 renal
[34] = test system: OVCAR-3 ovarian
[35] = test system: DU-145 prostate
[36] = test system: SN12C renal
[37] = test system: HCC-2998 colon
[38] = test system: SNB-75 CNS
[39] = test system: CAKI-1 renal
[40] = test system: SK-OV-3 ovarian
[41] = test system: NCI-H460 lung
[42] = test system: SR leukemia
[43] = test system: MDA-MB-231 breast
[44] = test system: SK-MEL-2 melanoma
[45] = test system: IGROV1 ovarian
[46] = test system: HS 578T breast
[47] = test system: HCT-15 colon
[48] = test system: U251 CNS
[49] = test system: A498 renal
[50] = test system: 786-0 renal
[51] = test system: RXF 393 renal
[52] = test system: UACC-257 melanoma
[53] = test system: NCI-H23 lung
[54] = test system: MDA-MB-435
[55] = test system: ACHN renal
[56] = test system: NCI-H522 lung
[57] = test system: HL-60(TB) leukemia

CC(C)n1nc(-c2cc3cc(O)ccc3[nH]2)c2c(N)ncnc21
GI50 [1]: 307 nM
TGI [1]: 10800 nM
GI50 [2]: 128 nM
TGI [2]: 7860 nM
GI50 [3]: 363 nM
TGI [3]: 4190 nM
GI50 [4]: 26.9 nM
TGI [4]: 265 nM
GI50 [5]: 178 nM
TGI [5]: 2310 nM
GI50 [6]: 70.5 nM
TGI [6]: 1250 nM
GI50 [7]: 393 nM
TGI [7]: 3560 nM
GI50 [8]: 345 nM
TGI [8]: 4280 nM
GI50 [9]: 34.4 nM
TGI [9]: 483 nM
GI50 [10]: 82.7 nM
TGI [10]: 923 nM
GI50 [11]: 1310 nM
TGI [11]: 14200 nM
GI50 [12]: 122 nM
TGI [12]: 870 nM
GI50 [13]: 43.5 nM
TGI [13]: 417 nM
GI50 [14]: 151 nM
TGI [14]: 1800 nM
GI50 [15]: 314 nM
TGI [15]: 3210 nM
GI50 [16]: 579 nM
TGI [16]: 36100 nM
GI50 [17]: 244 nM
TGI [17]: 8980 nM
GI50 [18]: 120 nM
TGI [18]: 1670 nM
GI50 [19]: 465 nM
TGI [19]: 28700 nM
GI50 [20]: 147 nM
TGI [20]: 1850 nM
GI50 [21]: 1520 nM
TGI [21]: 17900 nM
GI50 [22]: 161 nM
TGI [22]: 962 nM
GI50 [23]: 309 nM
GI50 [24]: 315 nM
TGI [24]: 6200 nM
GI50 [25]: 86 nM
TGI [25]: 6450 nM
GI50 [26]: 224 nM
TGI [26]: 4780 nM
GI50 [27]: 634 nM
TGI [27]: 14400 nM
GI50 [28]: 348 nM
TGI [28]: 7220 nM
GI50 [29]: 117 nM
TGI [29]: 1310 nM
GI50 [30]: 171 nM
TGI [30]: 1430 nM
GI50 [31]: 309 nM
TGI [31]: 2180 nM
GI50 [32]: 313 nM
TGI [32]: 2670 nM
GI50 [33]: 46.4 nM
TGI [33]: 726 nM
GI50 [34]: 220 nM
TGI [34]: 2750 nM
GI50 [35]: 498 nM
TGI [35]: 12000 nM
GI50 [36]: 175 nM
TGI [36]: 6430 nM
GI50 [37]: 572 nM
TGI [37]: 17800 nM
GI50 [38]: 37.7 nM
TGI [38]: 502 nM
GI50 [39]: 262 nM
TGI [39]: 1770 nM
GI50 [40]: 140 nM
TGI [40]: 754 nM
GI50 [41]: 127 nM
TGI [41]: 9380 nM
GI50 [42]: 191 nM
TGI [42]: 2930 nM
GI50 [43]: 296 nM
TGI [43]: 17400 nM
GI50 [44]: 229 nM
TGI [44]: 1950 nM
GI50 [45]: 94.5 nM
TGI [45]: 774 nM
GI50 [46]: 109 nM
TGI [46]: 503 nM
GI50 [47]: 342 nM
TGI [47]: 13900 nM
GI50 [48]: 565 nM
TGI [48]: 10900 nM
GI50 [49]: 19.4 nM
TGI [49]: 123 nM
GI50 [50]: 294 nM
TGI [50]: 2880 nM
GI50 [51]: 121 nM
TGI [51]: 661 nM
GI50 [52]: 161 nM
TGI [52]: 1700 nM
GI50 [53]: 317 nM
TGI [53]: 9190 nM
GI50 [54]: 219 nM
TGI [54]: 1770 nM
GI50 [55]: 224 nM
TGI [55]: 5180 nM
GI50 [56]: 97.4 nM
TGI [56]: 2020 nM
GI50 [57]: 1260 nM
TGI [57]: 5770 nM
